Results taken from patent EP0998946A1, “Non-porphyrin compound for use as a diagnosticum and/or pharmaceutical” (K.U. LEUVEN RESEARCH & DEVELOPMENT, priority 1998, dated 2000).

Experiments:
[1] = test system: Reperfused hepatic infarction in rats; test: MRI contrast enhancement, reperfused hepatic infarction in rats; assay type: in vivo, Wistar rats
[2] = test system: Acute myocardial infarction; test: MRI contrast enhancement, acute reperfused myocardial infarction in dogs; assay type: in vivo, Mongrel dogs; conditions: dog
mice = test: Acute lethal toxicity (LD50) in mice
[3] = test system: Acute myocardial infarction; test: MRI contrast enhancement, reperfused myocardial infarction in rabbits; assay type: in vivo, New Zealand rabbits; conditions: rabbit heart, 18 hours after IV injection at 0.05 mmol/kg, T1-w spin echo
rats = test: Acute lethal toxicity (LD50) in rats; conditions: 5.0 mmol/kg
[4] = test system: reperfused hepatic infarction; test: Scintigraphic imaging and infarction to normal tissue radioactivity ratio; assay type: in vivo, rat; conditions: 74 MBq
Procedure: Two effective and reproducible animal models have been induced and used in the in vivo assessment of newly synthesized agents. • 1. Reperfused hepatic infarction in rats: adult Wistar rats weighing about 350 grams were anesthetized with intraperitoneal injection of pentobarbital (Nembutal®, 40 mg/kg, Sanofi Sante Animale, B-1130 Brussels, Belgium). Under laparotomy, reperfused hepatic infarction was induced by temporarily clamping the hilum of the right liver lobes for 3 hours. The abdominal cavity was then closed and the rats were allowed to recover from surgery. • 2. Acute myocardial infarction in rabbits and dogs: under general anesthesia with Nembutal® at 6 mg/kg/h and intubated ventilation, adult New Zealand rabbits of 3 kg or Mongrel dogs of 20 kg underwent open-chest surgery through the seventh intercostal space. The left anterior descending (LAD) or circumflex (Cx) branch of the coronary artery was encircled and occluded with a snare-occluder for 150 minutes and reopened by losing the occluder to induce irreversible reperfused AMI. The thoracic cavity was closed by layers with the free air expelled.
[…] This animal was prepared as described above. Scintigraphic images were acquired during 1 to 5 minutes at regular time intervals up to 24 h after injection, using a Triad-gamma camera equipped with an ultra-high resolution parallel collimator.
After sacrificing the animal, organs were isolated and necrotic and viable liver parts were separated and weighed. Their 99m Tc radioactivity was measured using a sodium iodine scintillation detector coupled to a multichannel analyzer. The activity per gram tissue was a factor of 3.2 higher in necrotic liver tissue as compared to normal liver tissue.
This imaging result has been confirmed by radioactivity counting with a factor of more than 3 between infarcted and normal liver tissues.

necrotic liver = test: Biodistribution: tissue Gd content by ICP-AES in rats; conditions: Gadophrin-2 comparison
[5] = rat, 0.05 mmol/kg, T1 weighted spin echo

Question: `CNC[C@H](O)[C@@H](O)[C@H](O)[C@H](O)CO.CNC[C@H](O)[C@@H](O)[C@H](O)[C@H](O)CO.O=C([O-])CN(CCN(CC(=O)[O-])CC(=O)O)CCN(CC(=O)[O-])CC(=O)O.[Gd+3]` [Gd-DTPA, reference compound] was tested. Which “contrast enhancement of the lesions” value ([1]; T1 weighted MRI, hepatic and myocardial infarcts, iv 0.05 mmol/kg (Gd-DTPA 0.1 mmol/kg), degree and duration equal to that with Gadophrin-2) did it give?
Answer: only enhances nonspecifically the lesions at the early phase (<2h)

Question: How did the “enhancement at the infarcted papillary muscle” value ([2]; eighteen hours after contrast, 0.05 mmol/kg IV) turn out when “N,N'-Bis(diethylenetriamino penta-acetato)-4,4'-methylene bis(3-hydroxy-2-naphthalene carboxylic hydrazide), Gd-complex, sodium salt [ECIII-60]” was run?
Answer: extremely strong enhancement

Question: And the “signals of blood pool and papillary muscle” value ([2]; ten minutes after IV injection at 0.05 mmol/kg, T1-w turbo-FLASH)?
Answer: strongly enhanced

Question: And the “No. Deaths/No. animals” value (mice; 2.15 mmol/kg)?
Answer: 0/4

Question: And the “No. Deaths/No. animals” value (mice; 5.0 mmol/kg)?
Answer: 3/3

Question: What about the “enhancement of the transmural infarct” value [3] of the same compound?
Answer: persistently enhanced

Question: And the “signal intensity of infarcted liver versus normal liver” value ([1]; rat, 0.05 mmol/kg, 60 minutes after injection, T1 weighted spin echo)?
Answer: surpassed that of normal liver

Question: And the “time at which the necrosis-to-normal contrast reached maximum” value [1, 5]?
Answer: 24 h

Question: What about the “time until the enhancement of the necrosis became homogeneous” value [1, 5] of the same compound?
Answer: within a couple of hours

Question: What about the “No. Deaths/No. animals” value (rats) of the same compound?
Answer: 4/4

Question: How did the nuclear scintigraphy finding ([4]; rat with reperfused right liver lobe infarction, 24 hours after administration) turn out when “N,N'-Bis(diethylenetriamino penta-acetato)-4,4'-methylene bis(3-hydroxy-2-naphthalene carboxylic hydrazide), technetium-99m complex, sodium salt [Example 3]” was run?
Answer: hot spot caused by accumulation tracer in the necrotic liver lobe only

Question: And the “activity per gram tissue, factor necrotic liver tissue versus normal liver tissue” value ([4]; rat, 99mTc radioactivity of isolated liver parts after sacrifice)?
Answer: 3.2

Question: And the “scintigraphic visualization of the infarcted region” value ([4]; rat, images acquired 20 h after injection)?
Answer: Clear visualization of the infarcted region

Question: And the “radioactivity counting, factor between infarcted and normal liver tissues” value ([4]; rat, 24 hours after administration)?
Answer: more than 3

Question: Which “Gadolinium content, proportion necrotic liver to normal liver” value (necrotic liver) does the source give for gadolinium mesoporphyrin [Gadophrin-2] here?
Answer: one-to-one
